Test results: US10251860B2, “Compounds for bone healing” (University of Pittsburgh—Of the Commonwealth System of …, priority 2015, dated 2019)
Entries after “also recorded” stand apart in the source; their conditions may differ.

Assays:
Brine shrimp = Brine shrimp toxicity assay; type: in vivo
Method: General procedure for brine shrimp toxicity assays. Sample preparation. Stock solutions of 3 were prepared by dissolving 3 (50.0 mg) in 5.0 HPLC grade water (5.0 mL), (solution A) and 3 (2.50 g) in HPLC grade water (10.0 mL) (solution B). Stock solutions of DMSO were prepared by diluting DMSO (45 μL) with HPLC grade water (5.0 mL) (solution C) and DMSO (2.27 mL) with HPLC grade water (10.0 mL) (solution D).
In each case, 5 replicates were performed. Each replicate was performed in a 2 dram vial marked at the 4 and 5 mL volume points. To each vial was added artificial sea water (3 mL) followed by the appropriate volume of stock solution. For set 1 (1.0 mg/mL), solution A (0.500 mL) or solution C (0.500 mL) was added. For set 2 (5.0 mg/mL), solution B (0.100 mL) or solution D (0.100 mL) was added to each vial. For set 3 (20.0 mg/mL), solution B (0.400 mL) or solution D (0.400 mL) was added to each vial. For set 4 (50.0 mg/mL), solution B (1.00 mL) or solution D (1.00 mL) was added to each vial. Controls containing HPLC grade water (0.100 mL, 0.400 mL, and 1.00 mL) were prepared in the same manner, and five replicates of each control were prepared.
Brine shrimp eggs (San Francisco Bay Brand) were hatched in a commercial salt mixture (Instant Ocean). Constant aeration was provided using a pump and airstone, and illumination was maintained using a desk lamp. The shrimp were collected in a separate tank after 48 hours and used within 3-4 hours of collection.
Brine shrimp were added to each vial using a plastic transfer pipet. After the shrimp were transferred, artificial sea-water was added until the volume reached the 5-mL mark. One drop of a yeast suspension prepared by suspending 11 mg yeast in sea-water (20 mL) was added to each vial. The shrimp were counted at t=24 hours. Another drop of freshly prepared yeast solution (6 mg in 10 mL sea water) was added, the vials were maintained under illumination, and shrimp were counted at t=48 hours.

[1] = test system: 320 cl 3 murine hematopoietic cells; test: Apoptotic markers after 5 Gy irradiation in vitro; type: cell-based; conditions: 24 hours after irradiation
Description: Caspase-3 cleavage and Parpl cleavage illustrated the effects on apoptosis. […] Materials and Methods: Overall Design of Studies (Table 7).

[2] = test system: C57BL/6NTac mice, 9.5 Gy total body irradiation; test: Total body irradiation survival (hematopoietic syndrome); type: in vivo, mouse
Method: FIG. 13 is a graph of percent survival versus day, illustrating the in vivo mitigation of total body irradiation by MMS350. MMS350 was dissolved in water at a concentration of 2 mg/ml. C57BL/6NTac mice (n=15/group) were irradiated to 9.5 Gy total body irradiation and injected intraperitoneally with 10 mg/kg of MMS350 at 4 or 24 hours after irradiation. The mice were followed for the development of the hematopoietic syndrome at which time the mice were sacrificed.
Mice were irradiated using JL Shepherd Mark 1 Model 68 irradiator to 9.25 total body irradiation dose or a Varian Linear Accelerator (Varian Medical Systems, Inc, Palo Alto, Calif.) to 20 Gy for pulmonary irradiation according to published methods (2, 10, 13).
(§1) Mice were injected intra-peritoneally with MMS350 or JP4-039 (GS-nitroxide) in 50% cremphor/50% ethanol according to published methods. For long-term administration of MMS350, the drug was administered in water bottles with bottles changed every 7 days. The dose of drug per bottle was 100 μM MMS350 starting on day 88. The estimated total amount consumed by each animal daily was 10.9 μg based on a mouse drinking 5 ml of water per day. Chimeric mice irradiated to the thoracic cavity were placed 30 days later on MMS350 in water containing 100 mM MMS350. On day 88 after thoracic irradiation of non-chimeric mice, mice were placed on […] MMS350 in drinking water.

32D cl 3 cells = test: 32D cl 3 colony formation in semisolid medium after irradiation; type: cell-based, murine; conditions: delivered before or after irradiation
[3] = test system: C57BL/6NTac mice, 20 Gy thoracic irradiation; test: Radiation pulmonary fibrosis after 20 Gy thoracic irradiation; type: in vivo, mouse; conditions: MMS350 in drinking water
Description: For lung irradiation, mice were irradiated to the thoracic cavity with shielding of the head and neck region and abdomen and lower body according to published methods. Animals received 20 Gy single fraction thoracic irradiation and were then maintained according to IACUC directed laboratory conditions. Mice were sacrificed at serial time points after thoracic irradiation including pre-irradiation, days 2, 7, 14, 28, 50, 75, 100, 110, 150 and 200 post-irradiation. Lungs were removed and sagittal sections assayed for percent of lung replaced by fibroblasts and organizing alveolitis according to published methods. Representative lung lobes from the same animals were tested by RT-PCR for level of detectable message for inflammatory cytokines, redox sensitive promoters, and levels of MnSOD.
Lungs from irradiated and luc+ cell line injected mice were removed and serial sectioned. Sections were stained for luc+, GFP+ cells, BrdU incorporation, and for quantitation of percent lung replaced by fibrosis (organizing alveolitis) according to published methods.
as §1

For `CC1(C[S+]([O-])CC2(C)COC2)COC1` [Compound 3, 3,3′-Sulfinylbis(methylene)bis(3-methyloxetane)], the “% Mortality after 24 h” value (Brine shrimp; 1 mg/mL) was 0%, the “% Mortality after 48 h” value (Brine shrimp; 1 mg/mL) was 0% and the “% Mortality after 24 h” value (Brine shrimp; 5 mg/mL) was 0%. The “% Mortality after 48 h” value (Brine shrimp; 5 mg/mL) was 0%, the “% Mortality after 24 h” value (Brine shrimp; 20 mg/mL) was 0-10% and the “% Mortality after 48 h” value (Brine shrimp; 20 mg/mL) was 0-10%. For the same compound, the “% Mortality after 24 h” value (Brine shrimp; 50 mg/mL) was 85%, the “% Mortality after 48 h” value (Brine shrimp; 50 mg/mL) was 100% and the “mortality after 48 hours” value (Brine shrimp; concentrations up to 20 mg/mL) was under 10%. The “1C3-1/11 conversion (autophagy)” value ([1]; 5 Gy) was “no difference”, the “H2AX phosphorylation (DNA strand break repair)” value ([1]; 5 Gy) was “more prominent with MMS-350 than JP4-038” and the “mitochondrial markers of apoptosis” value ([1]; one-hour before or 30-minutes after 5 Gy) was “reduced mitochondrial markers of apoptosis”. For the same compound, the survival ([2]; 9.5 Gy TBI, 10 mg/kg intraperitoneally 4 hours after irradiation, p=0.0092) was “significantly increased survival”, the survival ([2]; 9.5 Gy TBI, 10 mg/kg intraperitoneally 24 hours after irradiation, p=0.0097) was “significantly increased survival” and the “protection and mitigation against total body irradiation” value ([2]; intraperitoneal injection before or after 9.5 Gy TBI, C57BL/6 mice, n=15/group) was “both a protector when delivered prior to irradiation and mitigator when delivered after irradiation comparable to JP4-039”. For the same compound, the survival ([2]; single dose 24 hours after 9.5 Gy TBI, C57BL/6/HNsd mice) was “significant improvement in survival”, the “radiation protection and mitigation of colony forming cells” value (32D cl 3 cells) was “significant effectiveness” and the survival ([3]; 20 Gy thoracic irradiated mice) was “significantly increased survival”. For the same compound, the pulmonary fibrosis ([3]; 20 Gy thoracic irradiation) was “decreased radiation pulmonary fibrosis; also recorded: significant decrease in pulmonary fibrosis” and the “Percent Pulmonary Fibrosis” value ([3]; thoracic-irradiated mice, −MMS350 20.8 ± 3.9, p < 0.0001) was 3.6 ± 1.1%.
